Measurements as given in patent US10703748B2, “Diazanaphthalen-3-yl carboxamides and preparation and use thereof” (Samumed, LLC, priority 2017, dated 2020).

Key:
DYRK1A kinase = DYRK1A kinase (Homo sapiens, UniProt Q13627); experiment: DYRK1A kinase activity (Ser/Thr 18 peptide Z-lyte FRET assay); type: biochemical; details: recombinant DYRK1A, 30 μM ATP, one hour at room temperature;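 note: kinase activity read as coumarin/fluorescein emission ratio after development step, with unphosphorylated and phosphorylated peptide forms setting 0% and 100% controls, values from dose-response curves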
Experimental: Representative compounds were screened using the assay procedure for DYRK1A kinase activity as described below.
Each compound was dissolved in DMSO as a 10 mM stock and used to prepare compound source plates.
This is a non-radioactive assay using fluorescence resonance energy transfer (FRET) between coumarin and fluorescein to detect kinase activity which is represented as a ratio of coumarin emission/fluorescein emission.
The mixture was allowed to incubate with the representative compounds for one hour at room temperature. All reactions were performed in duplicate. Unphosphorylated (“0% Control”) and phosphorylated (“100% control”) forms of Ser/Thr 18 served as control reactions. Additionally, an 11-point dose-response curve of Staurosporine (1 uM top) was run to serve as a positive compound control.
After incubation, Development Reagent A was diluted in Development Buffer then added to the reaction and allowed to further incubate for one hour at room temperature.
Dose-response curves were generated and inhibitory concentration (IC50) values were calculated using non-linear regression curve fit in the Dotmatics' Studies Software (Bishops Stortford, UK).

[1] = tested on: secreted cytokines TNFα, IL-6 and KC-GRO; experiment: Secreted cytokines in Lipopolysaccharide-stimulated BV-2 cells (Table 9 does not say which cytokine); type: cell-based, mouse; details: Mus musculus, BV-2, 5 h; read-out: EC50
[2] = tested on: α-smooth muscle actin (aSMA) positive LL29 cells; experiment: Inhibition of the fibrotic process: αSMA staining in TGF-β1 treated LL29 fibroblasts from IPF patients; details: Homo sapiens, Fibroblast; for EC50: 96 h; for inhibition at 10 µM: read-out: percentage in parentheses after EC50 >10
[3] = tested on: Tau phosphorylation at Ser396 (pSer396); experiment: Tau phosphorylation at Ser396 (pSer396) in SH-SY5Y cells, ELISA / western blot; type: cell-based, human; details: Homo sapiens; SH-SY5Y cells, overnight (16-18 h); read-out: pSer396 Tau EC50;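 note: decrease in pSer396 Tau measured in lysates of treated cells by colorimetric ELISA or chemiluminescent western blot, same pSer396 antibody for both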
Experimental: Two days before treatment, cells were seeded onto 96 well plates at 5×10^4 cells/well.
The above synthesized compounds were screened using the cell assay procedure to assess decrease Tau phosphorylation at Ser396 (pSer396) described below.
Cells were lysed with RIPA buffer complemented with phosphatase and protease inhibitors then lysates were spun down at 12,000 g for 10 min to remove any cellular debris.

GSK3β kinase = GSK3β kinase (Homo sapiens, UniProt P49841); experiment: GSK3β kinase activity (Ser/Thr 09 peptide Z-lyte FRET assay); type: biochemical; details: recombinant kinase, 46 μM ATP, one hour at room temperature; read-out: EC50
Sequence of GSK3β kinase (P49841 whole entry): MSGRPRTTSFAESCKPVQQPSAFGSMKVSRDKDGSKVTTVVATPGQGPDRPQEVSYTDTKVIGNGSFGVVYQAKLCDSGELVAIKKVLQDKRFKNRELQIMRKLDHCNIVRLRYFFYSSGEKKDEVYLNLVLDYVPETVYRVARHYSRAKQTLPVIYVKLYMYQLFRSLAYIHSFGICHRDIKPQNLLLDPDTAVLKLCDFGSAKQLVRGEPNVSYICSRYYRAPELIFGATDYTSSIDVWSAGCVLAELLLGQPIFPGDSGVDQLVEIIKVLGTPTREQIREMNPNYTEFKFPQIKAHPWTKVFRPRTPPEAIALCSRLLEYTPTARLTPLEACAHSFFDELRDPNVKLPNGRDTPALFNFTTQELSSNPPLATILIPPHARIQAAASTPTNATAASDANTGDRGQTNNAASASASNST
Experimental: Each compound is dissolved in DMSO as a 10 mM stock and used to prepare compound source plates. Serial dilution (1:3, 11-point dose-response curves from 10 μM to 0.0003 μM) and compound transfer was performed using the ECHO 550 (Labcyte, Sunnyvale, Calif.) into 1536-well black-walled round bottom plates (Corning).
This is a non-radioactive assay using fluorescence resonance energy transfer (FRET) between coumarin and fluorescein to detect kinase activity which is represented as ratio of coumarin emission/fluorescein emission.
The mixture is allowed to incubate with the representative compounds for one hour at room temperature. All reactions were performed in duplicate. Unphosphorylated (“0% Control”) and phosphorylated (“100% control”) forms of Ser/Thr 18 serve as control reactions.
After incubation, diluted Development Buffer is added to the reaction and allowed to further incubate for one hour at room temperature.
Dose-response curves are generated and inhibitory concentration (IC50) values are calculated using non-linear regression curve fit in the Dotmatics' Studies Software (Bishops Stortford, UK).

IL-6 = IL-6 inhibition in LPS-stimulated human peripheral blood mononuclear cells (HTRF); details: Homo sapiens, PBMC; for EC50: 22 h; for inhibition at 10 µM: read-out: percentage in parentheses after EC50 >10
Experimental: Each compound was dissolved in DMSO (Catalog # D8418-100 ml, Sigma-Aldrich, St. Louis, Mo.) as a 10 mM stock and used to prepare compound source plates. […] After 22 hour incubation, a mixture of anti-IL6 XL665 and anti-IL-6 Cryptate diluted in reconstitution buffer (Catalog #62IL6PEC, Cisbio Inc., Bedford, Mass.) was added to each well. […] All samples were processed in duplicate. […] EC50 was determined using software generated by Dotmatics Limited (Windhill Bishops Stortford Herts, UK) using the Levenberg-Marquardt 4 parameter fitting procedure with finite different gradients.

[4] = tested on: Wnt-responsive Sp5-Luc reporter in SW480 colon carcinoma cells; experiment: Screening assay for Wnt activity (Sp5-Luc reporter gene assay); details: Homo sapiens; for EC50: SW480; for inhibition at 10 µM: SW480, read-out: percent inhibition at 10 μM
[5] = tested on: SW480 colon carcinoma cells; experiment: Cell viability assay (CellTiter-Glo); details: Homo sapiens; for EC50: SW480, 96 h; for inhibition at 10 µM: SW480, read-out: percent inhibition at 10 μM

Compound | EC50 (DYRK1A kinase) | EC50 [1] | EC50 [3] | EC50 (GSK3β kinase) | EC50 (IL-6) | EC50 [4] | EC50 [5] | EC50 [2] | inhibition at 10 µM (IL-6) | inhibition at 10 µM [5] | inhibition at 10 µM [2] | inhibition at 10 µM [4]
Cn1cc(-c2cc3cc(NC(=O)[C@H]4CCCN4)ncc3cn2)cn1 [Compound 3689, (R)—N-(6-(1-Methyl-1H-pyrazol-4-yl)-2,7-naphthyridin-3-yl)pyrrolidine-2-carboxamide] | 71 nM | > 10000 nM | 156 nM | 8 nM | > 10000 nM | 370 nM | > 10000 nM | 893 nM | 7.6% | 28.8% |  | 
CC(C(=O)Nc1cc2cc(-c3cnn(C)c3)ncc2cn1)N1CCCCC1 (stereo not shown) [Compound 3698, N-(6-(1-Methyl-1H-pyrazol-4-yl)-2,7-naphthyridin-3-yl)-2-(piperidin-1-yl) propanamide] | 64 nM | 4800 nM | 76 nM | 9 nM | > 10000 nM | 288 nM | 6900 nM | 1070 nM | 4.6% |  |  | 
Cn1cc(-c2cc3cc(NC(=O)C4CCN(S(C)(=O)=O)CC4)ncc3cn2)cn1 [Compound 3699, N-(6-(1-Methyl-1H-pyrazol-4-yl)-2,7-naphthyridin-3-yl)-1-(methylsulfonyl) piperidine-4-carboxamide] | 2 nM | > 10000 nM | 43 nM | 6 nM | > 10000 nM | 234 nM | 6720 nM | 25 nM | 8.4% |  |  | 
Cn1cc(-c2cc3cc(NC(=O)CC4CNCCO4)ncc3cn2)cn1 (stereo not shown) [Compound 3714, N-(6-(1-Methyl-1H-pyrazol-4-yl)-2,7-naphthyridin-3-yl)-2-(morpholin-2-yl) acetamide] | 10 nM | 1620 nM | 210 nM | 8 nM | 5700 nM | 845 nM | 6020 nM | 1540 nM |  |  |  | 
Cn1cc(-c2cc3cc(NC(=O)C4CCN(Cc5ncco5)CC4)ncc3cn2)cn1 [Compound 3723, N-(6-(1-Methyl-1H-pyrazol-4-yl)-2,7-naphthyridin-3-yl)-1-(oxazol-2-ylmethyl)piperidine-4-carboxamide] | 2 nM | 94 nM | 252 nM | 10 nM | > 10000 nM | 842 nM | > 10000 nM | > 10000 nM | 2.8% | 43.7% | 9.1% | 
CN1CCCN(CC(=O)Nc2cc3cc(-c4cnn(C)c4)ncc3cn2)CC1 [Compound 3733, 2-(4-Methyl-1,4-diazepan-1-yl)-N-(6-(1-methyl-1H-pyrazol-4-yl)-2,7-naphthyridin-3-yl)acetamide] | 16 nM | 3700 nM | 227 nM | 43 nM | > 10000 nM | 515 nM | > 10000 nM | 1830 nM | 6.2% | 37.3% |  | 
CN1CCC(Oc2ccc(C(=O)Nc3cc4cc(-c5cnn(C)c5)ncc4cn3)cc2)CC1 [Compound 3772, N-(6-(1-Methyl-1H-pyrazol-4-yl)-2,7-naphthyridin-3-yl)-4-((1-methylpiperidin-4-yl)oxy)benzamide] | 8 nM | ≥ 10000 nM | 7280 nM | 390 nM | > 10000 nM | 221 nM | 8160 nM | 1140 nM | 10.6% |  |  | 
CN1CCN(Cc2cccc(C(=O)Nc3cc4cc(-c5cnn(C)c5)ncc4cn3)c2)CC1 [Compound 3799, N-(6-(1-Methyl-1H-pyrazol-4-yl)-2,7-naphthyridin-3-yl)-3-((4-methylpiperazin-1-yl)methyl)benzamide] | 12 nM | 79 nM | 3640 nM | 243 nM | > 10000 nM | 2120 nM | 3660 nM | 2580 nM | 5.3% |  |  | 
Cn1cc(-c2cc3cc(NC(=O)CCc4ccccc4)ncc3cn2)cn1 [Compound 3821, N-(6-(1-Methyl-1H-pyrazol-4-yl)-2,7-naphthyridin-3-yl)-3-phenylpropanamide] | 7 nM | 244 nM | 29 nM | 1 nM | 8410 nM | 176 nM | 231 nM | 313 nM |  |  |  | 
Cn1ncc(-c2cc3cc(NC(=O)C4CC5(C4)CN(CCF)C5)ncc3cn2)c1CN1CCCCC1 [Compound 3907, 2-(2-Fluoroethyl)-N-(6-(1-methyl-5-(piperidin-1-ylmethyl)-1H-pyrazol-4-yl)-2,7-naphthyridin-3-yl)-2-azaspiro[3.3]heptane-6-carboxamide] | 48 nM | 4700 nM | 367 nM | 39 nM | 8810 nM | 361 nM | 1300 nM | 1820 nM |  |  |  | 

Further lines, with some results ahead:

EC50 (DYRK1A kinase) | EC50 [1] | EC50 [3] | EC50 (GSK3β kinase) | EC50 (IL-6) | EC50 [4] | EC50 [5] | Compound | EC50 [2] | inhibition at 10 µM (IL-6) | inhibition at 10 µM [5] | inhibition at 10 µM [2] | inhibition at 10 µM [4]
6 nM | 471 nM | 428 nM | 18 nM | > 10000 nM | 962 nM | 7300 nM | O=C(Nc1cc2cc(-c3cnn4c3CN(CCF)CC4)ncc2cn1)C1CCC(F)(F)CC1 [Compound 3944, 4,4-Difluoro-N-(6-(5-(2-fluoroethyl)-4,5,6,7-tetrahydropyrazolo[1,5-a]pyrazin-3-yl)-2,7-naphthyridin-3-yl)cyclohexane-1-carboxamide] | 416 nM | 22.2% |  |  | 
21 nM | ≥ 10000 nM | 219 nM | 72 nM | > 10000 nM | > 10000 nM | > 10000 nM | Cn1cncc1-c1cc2cc(NC(=O)C3CCC(F)(F)CC3)ncc2cn1 [Compound 4027, 4,4-Difluoro-N-(6-(1-methyl-1H-imidazol-5-yl)-2,7-naphthyridin-3-yl) cyclohexane-1-carboxamide] | > 10000 nM | 4% | 26.3% | 33.9% | 17.5%
630 nM | 3900 nM | 102 nM | 19 nM | > 10000 nM | 291 nM | 4540 nM | CC(C(=O)Nc1cc2cc(-c3cncn3C)ncc2cn1)N1CCCC1 (stereo not shown) [Compound 4041, N-(6-(1-Methyl-1H-imidazol-5-yl)-2,7-naphthyridin-3-yl)-2-(pyrrolidin-1-yl) propanamide] | 3490 nM | 0% |  |  | 
3 nM | 1200 nM | 10000 nM | 145 nM | > 10000 nM | > 10000 nM | 7750 nM | Cn1cncc1-c1cc2cc(NC(=O)c3ccc4c(c3)CNC4)ncc2cn1 [Compound 4104, N-(6-(1-Methyl-1H-imidazol-5-yl)-2,7-naphthyridin-3-yl)isoindoline-5-carboxamide] | 3080 nM | 5.7% |  |  | 41.3%
4 nM | 859 nM | 989 nM | 72 nM | > 10000 nM | 972 nM | 8440 nM | O=C(Nc1cc2cc(-c3cnco3)ncc2cn1)C1CCN(C(=O)CN2CCCC2)CC1 [Compound 4159, N-(6-(Oxazol-5-yl)-2,7-naphthyridin-3-yl)-1-(2-(pyrrolidin-1-yl)acetyl) piperidine-4-carboxamide] | 347 nM | 10.1% |  |  | 
5 nM | 1700 nM | 491 nM | 187 nM | > 10000 nM | > 10000 nM | > 10000 nM | CN(C)[C@H]1CC[C@H](C(=O)Nc2cc3cc(-c4cncs4)ncc3cn2)CC1 [Compound 4239, trans-4-(dimethylamino)-N-(6-(thiazol-5-yl)-2,7-naphthyridin-3-yl) cyclohexane-1-carboxamide] | > 10000 nM | 10.5% | 27.6% | 50% | 41.9%
39 nM | 516 nM | 553 nM | 199 nM | > 10000 nM | 1520 nM | > 10000 nM | CN1CCC(C(=O)Nc2cc3cc(-c4cnsc4)ncc3cn2)CC1 [Compound 4319, N-(6-(Isothiazol-4-yl)-2,7-naphthyridin-3-yl)-1-methylpiperidine-4-carboxamide] | 1630 nM | 11.4% | 43% |  | 
4 nM | 524 nM | 10000 nM | 77 nM | > 10000 nM | 3640 nM | > 10000 nM | O=C(Nc1cc2cc(-c3cncc(NC4CCNCC4)n3)ncc2cn1)C1CCOCC1 [Compound 4504, N-(6-(6-(Piperidin-4-ylamino)pyrazin-2-yl)-2,7-naphthyridin-3-yl) tetrahydro-2H-pyran-4-carboxamide] | 384 nM | 7.3% | 47.9% |  | 
